Measurements: patent US11207312B2, “Metallo-beta-lactamase inhibitors and methods of use thereof” (priority 2017, dated 2021)

Columns and labels:
VIM-1 = VIM-1 (Pseudomonas aeruginosa (strain ATCC 15692 / DSM 22644 / CIP 104116 / JCM 14847 / LMG 12228 / 1C / PRS 101 / PAO1), UniProt A0A0F7KYQ8); experiment: biochemical; details: CCF2-FA fluorescence assay, 2 hours at 25° C.; read-out: VIM1 IC50
How it was run: (§1)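 In 100 mM phosphate pH 7 containing Tween-20 and ZnSO4, NDM-1 (1 pM), IMP-1 (2 pM) or VIM-1 (30 pM) hydrolysed 1.25 μM CCF2-FA over 2 hours at 25° C with inhibitor present. Readout was 405/460 nm fluorescence.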

IMP-1 = IMP-1 (Serratia marcescens, UniProt P52699); experiment: biochemical; details: CCF2-FA fluorescence assay, 2 hours at 25° C.; read-out: IMP1 IC50
How it was run: as §1

[1] = test system: P. aeruginosa MB9799 (efflux-, IMP-1 plasmid); assay type: cell-based, Pseudomonas aeruginosa; details: efflux − (MB9799) strain; imipenem at 2 μg/mL; in the presence of a class A, C, D serine β-lactamase inhibitor closely related to relebactam
How it was run: (§2)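 PAO1-derived isogenic pair (oprD+, inducible AmpC), efflux+ MB5919 or efflux− MB5890 parent, carrying an electroporated IMP-1 plasmid from a clinical isolate. Microbroth MIC with fixed imipenem and/or ceftazidime (usually CLSI breakpoint) plus fixed class A/C inhibitor; MBL inhibitor serially titrated, concentration restoring susceptibility recorded.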

[2] = test system: P. aeruginosa MB9798 (efflux+, IMP-1 plasmid); details: for MB9798 MITC95 P. aeruginosa uM Efflux WT: efflux + (MB9798) strain, imipenem at 2 μg/mL, in the presence of a class A, C, D serine β-lactamase inhibitor closely related to relebactam; for Efflux ratio: fold difference between efflux+ (MB9798) and efflux− (MB9799) strains
How it was run: as §2

[3] = test system: Escherichia coli expressing NDM-1 (CLB30016); assay type: cell-based; details: with imipenem 1 μg/ml; 95% inhibition of bacterial growth
How it was run: (§3)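 MITC95 denotes the minimal test-compound level that, combined with 1 μg/ml imipenem, blocks 95% of bacterial growth, measured by absorbance. Overnight-grown clinical isolates were diluted 1:100 in CAMHB and incubated with both agents at 35° C for 22–24 h.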

[4] = test system: Serratia marcescens expressing IMP-1 (CL5741); assay type: cell-based; details: with imipenem 1 μg/ml; 95% inhibition of bacterial growth
How it was run: as §3

[5] = test system: Klebsiella pneumoniae expressing VIM-1 (IHMA599644); assay type: cell-based; details: with imipenem 1 μg/ml; 95% inhibition of bacterial growth
How it was run: as §3

VIM-2 = VIM-2 (Escherichia coli, UniProt Q5U7L7); experiment: biochemical; details: CCF2-FA fluorescence assay; read-out: VIM2 IC50
NDM-1 = NDM-1 (Klebsiella pneumoniae, UniProt C7C422); experiment: biochemical; assay type: biochemical; details: CCF2-FA fluorescence assay, 2 hours at 25° C.
How it was run: as §1

NDM-1, sequence (C7C422 whole entry, looked up, species assumed): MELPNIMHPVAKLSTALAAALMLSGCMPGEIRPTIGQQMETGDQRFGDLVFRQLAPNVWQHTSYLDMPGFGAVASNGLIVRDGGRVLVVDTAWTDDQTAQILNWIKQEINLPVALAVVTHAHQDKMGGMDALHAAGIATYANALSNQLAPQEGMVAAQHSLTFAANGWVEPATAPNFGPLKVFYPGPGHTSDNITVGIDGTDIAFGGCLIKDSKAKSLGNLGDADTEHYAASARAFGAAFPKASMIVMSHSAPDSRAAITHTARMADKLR
IMP-1, sequence (P52699 whole entry, looked up, species assumed): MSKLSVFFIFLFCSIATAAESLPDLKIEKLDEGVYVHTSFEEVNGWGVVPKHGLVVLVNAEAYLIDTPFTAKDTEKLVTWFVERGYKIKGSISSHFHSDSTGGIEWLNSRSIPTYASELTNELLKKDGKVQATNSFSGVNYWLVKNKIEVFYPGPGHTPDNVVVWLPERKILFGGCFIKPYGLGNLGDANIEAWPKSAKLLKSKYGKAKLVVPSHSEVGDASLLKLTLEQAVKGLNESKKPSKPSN

Row | SMILES | IC50 (VIM-1) [nM] | IC50 (IMP-1) [nM] | MB9799 MITC95 P. aeruginosa uM Efflux Mutant [1] [µM] | MB9798 MITC95 P. aeruginosa uM Efflux WT [2] [µM] | Efflux ratio [2] | CLB30016 E. coli MITC95 NDM [3] [µM] | CL5741 S. marcescens MITC95 IMP [4] [µM] | IHMA599644 K. pneumoniae MITC95 VIM [5] [µM] | IC50 (VIM-2) [nM] | IC50 (NDM-1) [nM]
1 | NC[C@@H](O)CNS(=O)(=O)c1ccc(N2CC[C@H](N)[C@H](F)C2)c(-c2nn[nH]n2)c1S(N)(=O)=O [Example 195, N1-((R)-3-amino-2-hydroxypropyl)-4-((3R,4S)-4-amino-3-fluoropiperidin-1-yl)-3-(2H-tetrazol-5-yl)benzene-1,2-disulfonamide] | 0.14 | 4.27 | 0.78 | 0.78 | 1.00 | 0.20 | 0.20 | 0.39 | 2.86 | 1.51
2 | C[C@H](CN)NS(=O)(=O)c1ccc(N2CC[C@@H](CN)[C@@H](F)C2)c(-c2nn[nH]n2)c1S(N)(=O)=O (racemic) [Example 8] | 0.07 | 1.12 | 0.39 | 0.78 | 2.00 | 0.20 | 0.39 | 0.78 | 2.35 | 0.19
3 | NS(=O)(=O)c1c(S(=O)(=O)N[C@@H]2CCNC2)ccc(N2CCC(C(F)F)CC2)c1-c1nnn[nH]1 [Example 90, 4-[4-(difluoromethyl)piperidin-1-yl]-N1-[(3R)-pyrrolidin-3-yl]-3-(1H-tetrazol-5-yl)benzene-1,2-disulfonamide] | 0.34 | 0.77 | 1.56 | 6.25 | 4.00 | 3.13 | 3.13 | 3.13 | 1.02 | 0.43
4 | C[C@H](CN)NS(=O)(=O)c1ccc(N2CCC(CO)CC2)c(-c2nnn[nH]2)c1S(N)(=O)=O [Example 46, (R)-N1-(1-aminopropan-2-yl)-4-(4-(hydroxymethyl)piperidin-1-yl)-3-(1H-tetrazol-5-yl)benzene-1,2-disulfonamide] | 0.08 | 0.12 | 1.56 | 1.56 | 1.00 | 3.13 | 1.56 | 6.25 | 0.32 | 0.06
5 | NC[C@@H](O)CNS(=O)(=O)c1ccc(N2CCC(F)(CO)CC2)c(-c2nn[nH]n2)c1S(N)(=O)=O [Example 22, (R)-N^1-(3-amino-2-hydroxypropyl)-4-(4-fluoro-4-(hydroxymethyl)piperidin-1-yl)-3-(2H-tetrazol-5-yl)benzene-1,2-disulfonamide] | 0.35 | 0.7 | 1.56 | 1.56 | 1.00 | 3.13 | 1.56 | 6.25 | 0.79 | 0.45
6 | NC1CCN(c2ccc(S(=O)(=O)N[C@@H]3CCNC3)c(S(N)(=O)=O)c2-c2nn[nH]n2)C(=O)C1 (stereo partly drawn) [Example 158, 4-(4-amino-2-oxopiperidin-1-yl)-N1-((R)-pyrrolidin-3-yl)-3-(2H-tetrazol-5-yl)benzene-1,2-disulfonamide] | 1.22 | 88.4 | 3.13 | 6.25 | 2.00 | 0.10 | 1.56 | 0.78 | 22.8 | 7.19
7 | CN(C)CC1(O)CCN(c2ccc(S(=O)(=O)N[C@@H]3CCNC3)c(S(N)(=O)=O)c2-c2nnn[nH]2)CC1 [Example 100, 4-{4-[(dimethylamino)methyl]-4-hydroxypiperidin-1-yl}-N1-[(3R)-pyrrolidin-3-yl]-3-(1H-tetrazol-5-yl)benzene-1,2-disulfonamide] | 12.4 | 37 | 6.25 | 12.50 | 2.00 | 12.50 | 6.25 | 12.50 | 162 | 17.5
8 | NS(=O)(=O)c1c(S(=O)(=O)C2CNC2)ccc(N2CCC[C@H](O)C2)c1-c1nnn[nH]1 [Example 60, 6-(azetidin-3-ylsulfonyl)-3-[(3S)-3-hydroxypiperidin-1-yl]-2-(1H-tetrazol-5-yl)benzenesulfonamide] | 1.44 | 6.05 | 3.13 | 12.50 | 4.00 | 3.13 | 3.13 | 6.25 | 2.67 | 4.23
9 | NCC=C1CCCN(c2ccc(S(=O)(=O)NC[C@H](O)CN)c(S(N)(=O)=O)c2-c2nn[nH]n2)C1 (single isomer, unassigned; isomer a) [Example 205] | 0.34 | 19.7 | 1.56 | 12.50 | 8.00 | 0.78 | 1.56 | 1.56 | 1.07 | 7.59
10 | NS(=O)(=O)c1c(S(=O)(=O)N[C@@H]2CCNC2)ccc(N2CCC(O)CC2=O)c1-c1nn[nH]n1 (stereo partly drawn) [Example 159, 4-(4-hydroxy-2-oxopiperidin-1-yl)-N1-((R)-pyrrolidin-3-yl)-3-(2H-tetrazol-5-yl)benzene-1,2-disulfonamide] | 0.38 | 15.9 | 1.56 | 6.25 | 4.00 | 1.56 | 0.78 | 6.25 | 2.62 | 0.61
11 | N.NC[C@@H](O)CNS(=O)(=O)c1ccc(N2CCN(CC(=O)O)CC2)c(-c2nnn[nH]2)c1S(N)(=O)=O [Example 137, ammonium (R)-2-(4-(4-(N-(3-amino-2-hydroxypropyl)sulfamoyl)-3-sulfamoyl-2-(1H-tetrazol-5-yl)phenyl)piperazin-1-yl)acetate] | 16.1 | 4.97 | 3.13 | 6.25 | 2.00 | 0.78 | 1.56 | 6.25 | 15.3 | 3.5
12 | NC[C@@H](O)CNS(=O)(=O)c1ccc(N2CCC3(CCNC3)C2)c(-c2nn[nH]n2)c1S(N)(=O)=O (stereo partly drawn) [Example 133, di-trifluoroacetic acid] | 2.07 | 24 | 1.56 | 3.13 | 2.00 | 0.78 | 1.56 | 0.78 | 57.9 | 12.7
